SMILES strings stand for the structures. Where only a bound is given, the exact number is not on record here.

Consider 23 compounds from the Kinase Knowledgebase extract (Sharma et al. 2016).

Sequence of EGFR (human) (P00533 whole entry, looked up): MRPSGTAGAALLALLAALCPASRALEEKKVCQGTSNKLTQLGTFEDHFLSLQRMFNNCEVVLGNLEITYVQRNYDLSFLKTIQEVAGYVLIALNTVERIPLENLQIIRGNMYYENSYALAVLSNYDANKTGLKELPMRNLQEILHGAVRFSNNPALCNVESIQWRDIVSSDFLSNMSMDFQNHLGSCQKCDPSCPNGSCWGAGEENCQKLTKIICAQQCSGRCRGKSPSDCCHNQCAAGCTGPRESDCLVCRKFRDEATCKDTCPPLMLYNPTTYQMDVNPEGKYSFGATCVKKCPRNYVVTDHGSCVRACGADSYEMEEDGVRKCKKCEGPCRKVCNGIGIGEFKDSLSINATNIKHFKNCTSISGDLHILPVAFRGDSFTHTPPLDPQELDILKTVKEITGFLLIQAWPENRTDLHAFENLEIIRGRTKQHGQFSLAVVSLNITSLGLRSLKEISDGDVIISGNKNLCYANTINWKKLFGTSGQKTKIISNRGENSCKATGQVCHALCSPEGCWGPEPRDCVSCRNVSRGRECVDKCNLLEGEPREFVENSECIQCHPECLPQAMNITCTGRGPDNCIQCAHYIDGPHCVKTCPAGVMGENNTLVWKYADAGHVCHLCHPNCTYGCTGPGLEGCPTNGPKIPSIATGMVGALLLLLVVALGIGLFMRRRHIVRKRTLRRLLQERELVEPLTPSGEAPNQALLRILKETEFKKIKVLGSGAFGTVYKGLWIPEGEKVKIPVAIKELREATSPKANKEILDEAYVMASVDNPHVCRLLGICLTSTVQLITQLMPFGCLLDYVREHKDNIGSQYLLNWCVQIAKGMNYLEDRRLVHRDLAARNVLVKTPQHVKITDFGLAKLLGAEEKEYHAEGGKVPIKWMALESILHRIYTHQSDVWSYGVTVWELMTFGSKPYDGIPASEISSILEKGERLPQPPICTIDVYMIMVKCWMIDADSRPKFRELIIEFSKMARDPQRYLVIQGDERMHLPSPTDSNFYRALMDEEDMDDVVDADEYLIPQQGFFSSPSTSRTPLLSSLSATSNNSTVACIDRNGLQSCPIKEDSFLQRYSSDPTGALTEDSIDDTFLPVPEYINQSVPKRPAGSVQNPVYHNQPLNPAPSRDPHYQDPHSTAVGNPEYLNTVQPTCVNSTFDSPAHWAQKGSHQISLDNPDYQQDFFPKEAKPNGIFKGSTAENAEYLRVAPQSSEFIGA

The experiment concerns the target EGFR (human) (UniProt P00533).
`CCc1cnc(NC(=O)c2ccc(-c3nn([C@@H]4CCN(C(=O)/C=C/CN(C)C5CC5)C4)c4ncnc(N)c34)cc2)s1`: the IC50 (as a rule, the concentration that inhibits the measured activity by half) lay within 100 to 1000 nM.

`CN(C/C=C/C(=O)N1CC[C@@H](n2nc(-c3ccc(C(=O)Nc4ncc(C5CC5)s4)cc3)c3c(N)ncnc32)C1)C1CC1` showed an IC50 of under 1 nM.

`CN(C/C=C/C(=O)N1CC[C@@H](n2nc(-c3ccc(C(=O)Nc4nccs4)cc3)c3c(N)ncnc32)C1)C1CC1` came in with an IC50 of under 1 nM.

Take `CNC/C=C/C(=O)N1CC[C@@H](n2nc(-c3ccc(C(=O)Nc4cc(C)ccn4)cc3)c3c(N)ncnc32)C1`: the IC50 was in the range of 100 to 1000 nM.

Consider `CN(C/C=C/C(=O)N1CC[C@@H](n2nc(-c3ccc(C(=O)Nc4ncc(C#N)s4)cc3)c3c(N)ncnc32)C1)C1CC1`, for which the IC50 was in the range of 1 to 100 nM.

Regarding `Cc1ccnc(NC(=O)c2ccc(-c3nn([C@H]4CC[C@H](NC(=O)/C=C/CN(C)C5CC5)CC4)c4ncnc(N)c34)cc2)c1`, the IC50 lay within 100 to 1000 nM.

With `CC#CC(=O)N[C@H]1CC[C@H](n2nc(-c3ccc(C(=O)Nc4cc(C(F)(F)F)ccn4)cc3)c3c(N)ncnc32)CC1`, the IC50 was 100 to 1000 nM.

Turning to `Nc1ncnc2c1c(-c1ccc(C(=O)Nc3cc(C(F)(F)F)ccn3)cc1)nn2[C@@H]1CCN(C(=O)/C=C/CNC2CC2)C1`, the IC50 is 1 to 100 nM.

`CN(C)C/C=C/C(=O)N1CC[C@@H](n2nc(-c3ccc(C(=O)Nc4ccccn4)cc3)c3c(N)ncnc32)C1` showed an IC50 of 100 to 1000 nM.

`CC(C)c1cnc(NC(=O)c2ccc(-c3nn([C@@H]4CCN(C(=O)/C=C/CN(C)C5CC5)C4)c4ncnc(N)c34)cc2)s1` yielded an IC50 of 100 to 1000 nM.

For `CC(C)c1ccnc(NC(=O)c2ccc(-c3nn([C@@H]4CCN(C(=O)/C=C/CN(C)C)C4)c4ncnc(N)c34)cc2)c1`, the IC50 lay within 100 to 1000 nM.

`CN(C/C=C/C(=O)N1CC[C@@H](n2nc(-c3ccc(C(=O)Nc4ncco4)cc3)c3c(N)ncnc32)C1)C1CC1` showed an IC50 of over 10 nM.

For `CCCc1cnc(NC(=O)c2ccc(-c3nn([C@@H]4CCN(C(=O)/C=C/CN(C)C5CC5)C4)c4ncnc(N)c34)cc2)s1`, the IC50 lay in the range of 100 to 1000 nM.

In turn, `Cc1ccnc(NC(=O)c2ccc(-c3nn([C@@H]4CCN(C(=O)/C=C/CNC5CC5)C4)c4ncnc(N)c34)cc2)c1` yielded an IC50 of 100 to 1000 nM.

Turning to `CN(C)C/C=C/C(=O)N1CC[C@@H](n2nc(-c3ccc(C(=O)Nc4cc(C#N)ccn4)cc3)c3c(N)ncnc32)C1`, the IC50 was in the range of 100 to 1000 nM.

As to `CN(C/C=C/C(=O)N1CC[C@@H](n2nc(-c3ccc(C(=O)Nc4ccccn4)cc3)c3c(N)ncnc32)C1)C1CC1`, the IC50 was in the range of 100 to 1000 nM.

With `CNC/C=C/C(=O)N1CC[C@@H](n2nc(-c3ccc(C(=O)Nc4cc(C(F)(F)F)ccn4)cc3)c3c(N)ncnc32)C1`, the IC50 is 1 to 100 nM.

In the case of `CCCc1ccnc(NC(=O)c2ccc(-c3nn([C@@H]4CCN(C(=O)/C=C/CN(C)C5CC5)C4)c4ncnc(N)c34)cc2)c1`, the IC50 was 100 to 1000 nM.

The compound `CN(C/C=C/C(=O)N1CC[C@@H](n2nc(-c3ccc(C(=O)Nc4ncc(C(F)(F)F)s4)cc3)c3c(N)ncnc32)C1)C1CC1` yielded an IC50 of 100 to 1000 nM.

`CN(C/C=C/C(=O)N[C@H]1CC[C@H](n2nc(-c3ccc(C(=O)Nc4cc(C(F)(F)F)ccn4)cc3)c3c(N)ncnc32)CC1)C1CC1` yielded an IC50 of 100 to 1000 nM.

Compound `CN(C)C/C=C/C(=O)N1CC[C@@H](n2nc(-c3ccc(C(=O)Nc4cc(C(F)(F)F)ccn4)cc3)c3c(N)ncnc32)C1` yielded an IC50 of 100 to 1000 nM.

`CN(C/C=C/C(=O)N1CC[C@@H](n2nc(-c3ccc(C(=O)Nc4cc(C(F)(F)F)ccn4)cc3)c3c(N)ncnc32)C1)C1CC1`: the IC50 fell in the range of 100 to 1000 nM.

With `Cc1ccnc(NC(=O)c2ccc(-c3nn([C@H]4CC[C@H](NC(=O)/C=C/CN(C)C)CC4)c4ncnc(N)c34)cc2)c1`, the IC50 fell in the range of 100 to 1000 nM.
